In patent US10792377B2, “Compounds and method for imaging cancer” (Vanderbilt University, priority 2017, dated 2020):
Like-named read-outs stand apart in the source and are kept apart here.

Tests used:
[1] = target: T1, hCOX-2 in 1483 cells (Homo sapiens, UniProt P35354); assay: Intact cell COX-2 inhibition assay in 1483 HNSCC cells; type: cell-based
T1 construct: cells that express high levels of COX-2 were selected; endogenous in cells; host or cells: 1483 human head and neck squamous cell carcinoma (HNSCC) cells
T1 sequence (P35354 18-604): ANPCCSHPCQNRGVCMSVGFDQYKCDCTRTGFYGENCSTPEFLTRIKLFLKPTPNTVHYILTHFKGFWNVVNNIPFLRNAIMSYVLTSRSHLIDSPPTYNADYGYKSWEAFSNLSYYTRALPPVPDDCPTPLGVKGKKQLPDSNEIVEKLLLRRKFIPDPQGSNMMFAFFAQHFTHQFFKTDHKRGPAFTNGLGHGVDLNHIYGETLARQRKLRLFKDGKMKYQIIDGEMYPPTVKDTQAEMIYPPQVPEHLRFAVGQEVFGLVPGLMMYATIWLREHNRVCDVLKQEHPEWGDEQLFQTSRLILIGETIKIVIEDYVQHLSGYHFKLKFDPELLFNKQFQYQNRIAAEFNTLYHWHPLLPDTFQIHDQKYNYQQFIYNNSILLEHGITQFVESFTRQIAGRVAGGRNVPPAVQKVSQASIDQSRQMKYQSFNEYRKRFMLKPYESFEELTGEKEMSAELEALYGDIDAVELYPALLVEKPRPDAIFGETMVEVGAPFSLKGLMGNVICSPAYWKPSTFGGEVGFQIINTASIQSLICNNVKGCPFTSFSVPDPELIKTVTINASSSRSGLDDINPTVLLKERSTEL
Description: Following the promising results from the purified enzyme assay, the ability of compound 1 to inhibit COX-2 in intact cells was examined using a previously reported method. 1483 human head and neck squamous cell carcinoma (1483 HNSCC) cells that express high levels of COX-2 were selected. […]
Cell Culture and In Vitro Intact Cell Metabolism Assay. Inhibition of COX-2 in intact cells by test compounds was assayed by a previously described method. Human 1483 head and neck squamous cell carcinoma (HNSCC) cells (passage 8-18, mycoplasma negative by a polymerase chain reaction detection method) were cultured in DMEM/F12+10% fetal bovine serum+Antibiotic/Antimycotic in 6-well plates to 60% confluence. […] Reactions were terminated and analyzed by thin layer chromatography as described above.

[2] = target: T2, murine COX-2 (Mus musculus, UniProt Q05769); assay: In vitro purified COX-2 inhibition assay (TLC, 14C-arachidonic acid); type: biochemical; conditions: for COX-2 Selectivity Index (COX-1 IC50/COX-2 IC50): in vitro, purified enzymes
T2 sequence (Q05769 18-604): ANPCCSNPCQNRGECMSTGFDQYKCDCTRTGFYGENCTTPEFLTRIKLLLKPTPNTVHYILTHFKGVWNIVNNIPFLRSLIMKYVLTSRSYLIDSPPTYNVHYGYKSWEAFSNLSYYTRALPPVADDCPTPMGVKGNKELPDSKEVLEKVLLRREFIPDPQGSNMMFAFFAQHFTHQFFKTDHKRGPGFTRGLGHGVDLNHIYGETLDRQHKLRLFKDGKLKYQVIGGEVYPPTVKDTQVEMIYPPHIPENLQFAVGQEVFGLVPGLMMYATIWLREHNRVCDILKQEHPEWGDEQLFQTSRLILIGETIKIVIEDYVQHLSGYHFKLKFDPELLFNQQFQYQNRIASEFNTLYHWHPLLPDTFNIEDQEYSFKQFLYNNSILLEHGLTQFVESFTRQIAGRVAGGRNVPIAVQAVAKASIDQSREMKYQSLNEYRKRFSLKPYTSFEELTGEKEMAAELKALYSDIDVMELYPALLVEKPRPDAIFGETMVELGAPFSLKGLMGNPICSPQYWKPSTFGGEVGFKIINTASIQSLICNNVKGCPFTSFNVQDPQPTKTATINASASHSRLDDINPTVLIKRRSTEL
Description: The in vitro cyclooxygenase (ovine COX-1 or human COX-2) inhibitory activities of these probes were tested by a previously described TLC assay (FIGS. 19-21). Briefly, reaction mixtures of 200 μL consisted of hematin-reconstituted protein in 100 mM Tris-HCl, pH 8.0, 500 μM phenol, and [1-^14C]arachidonic acid (50 μM, about 55-57 mCi/mmol, Perkin Elmer).
Inhibition Assay Using Purified COX-1 and COX-2. Inhibition of purified ovine COX-1 or mouse COX-2 by test compounds was assayed by a previously described method, which quantifies the conversion of [1-^14C]arachidonic acid to [1-^14C]prostaglandin products. Reaction mixtures of 200 ∝L consisted of hematin-reconstituted protein in 100 mM Tris-HCl, pH 8.0, 500 μM phenol, and [1-^14C]arachidonic acid (50 μM, ˜55-57 mCi/mmol, Perkin Elmer). For the time-dependent inhibition assay, hematin-reconstituted COX-1 ([…]) was preincubated at 25° C. for 17 min and 37° C. for 3 min with varying inhibitor concentrations in dimethylsulfoxide followed by the addition of [1-^14C]arachidonic acid (50 μM) for 30 s at 37° C. Reactions were terminated by solvent extraction in diethyl ether:methanol:1 M citrate buffer, pH 4.0 (30:4:1). The phases were separated by centrifugation at 2000 g for 2 min, and the organic phase was spotted on a thin-layer chromatography plate (EMD Kieselgel 60, VWR). The plate was developed in ethyl acetate:methylene chloride:glacial AcOH (75:25:1) at 4° C. Radiolabeled products were quantified with a radioactivity scanner (Bioscan, Inc., Washington, D.C.).

Structure (SMILES)	IC50 ([1]; high throughput screening, intact cancer cells, read-out: COX-2 positive 1483 HNSCC cells IC50) [nM]	COX-2 Selectivity Index (COX-1 IC50/COX-2 IC50) [2]	IC50 ([1]; COX-2 IC50 in intact cells, 1483 HNSCC cells, compound 30 min 37° C., then [1-14C]-arachidonic acid 10 μM 20 min) [nM]	IC50 ([1]; hCOX-2 IC50, 1483 cells, 8 μM 14C-AA, 30 min at 37° C.) [nM]	IC50 ([2]; COX-2 IC50, in vitro purified cox assay) [nM]	IC50 ([2]; mCOX-2 IC50, purified murine COX-2 (63 nM), inhibitor 20 min, then 1-14C-AA (50 μM) 37° C. 30 s, duplicates) [nM]
COc1ccc2c(c1)c(CC(=O)NCCCCNC(=O)c1ccc(C3=c4cc5c6c(c4Oc4c3cc3c7c4CCCN7CCC3)CCC[N+]=6CCC5)c(C(=O)[O-])c1)c(C)n2C(=O)c1ccc(Cl)cc1 [Fluorocoxib A, reference compound]	300	>35	–	–	–	–
COc1ccc2c(c1)c(CC(=O)NCCCCNC(=O)c1ccc(C3=c4cc5c6c(c4Oc4c3cc3c7c4CCCN7CCC3)CCC[N+]=6CCC5)c(C(=O)NC3CC(C)(C)N([O])C(C)(C)C3)c1)c(C)n2C(=O)c1ccc(Cl)cc1 [Compound 1]	–	>83	280	285	303	300
